# Results taken from patent US8329644B2, “Lantibiotic-based compounds having antimicrobial activity” (Novacta Biosystems Limited, priority 2007, dated 2012).
# Assays:
# [1] = test system: S. aureus; assay: MIC susceptibility testing, S. aureus; type: cell-based, Staphyloccus aureus
# Method: (§1) Susceptibility testing for all aerobic organisms with the exception of Streptococcus pneumoniae was performed by two-fold serial antibiotic dilutions in Mueller-Hinton Broth supplemented with 50 μg/ml Ca^2+ unless otherwise noted. Susceptibility testing for S. pneumoniae was performed by two-fold serial antibiotic dilutions in Brain-Heart-Infusion Broth supplemented with 50 μg/ml Ca^2+ unless otherwise noted. Actively growing broth cultures were diluted to contain […] by adjusting to an OD600 of 0.2-0.3. They were then diluted a further 1:100 in fresh sterile broth. The assays were performed in duplicate in sterile 96-well microtitre plates in a total volume of 200 μl (160 μl broth, 20 μl antimicrobial agent, 20 μl inoculum) in a concentration range from 64 μg/ml to 0.06 μg/ml. […] Clinical isolates of Clostridium difficile were tested in Wilkins-Chalgren Anaerobe Agar under anaerobic conditions. In all cases, vancomycin was used as a reference antibiotic
# [2] = test system: S. epidermidis; assay: MIC susceptibility testing, S. epidermidis; type: cell-based, Staphylococcus epidermidis
# Method: as §1
# [3] = test system: M. luteus; assay: MIC susceptibility testing, M. luteus; type: cell-based; settings: M. luteus 4698; Table 2
# Method: as §1
# [4] = test system: S. pneumoniae; assay: MIC susceptibility testing, S. pneumoniae (Brain-Heart-Infusion Broth); type: cell-based, Streptococcus pneumoniae; settings: S. pneumoniae R6; Table 2
# Method: as §1
# [5] = test system: S. mitis; assay: MIC susceptibility testing, S. mitis; type: cell-based; settings: Viridans streptococci, Table 3
# Method: as §1
# [6] = test system: S. oralis; assay: MIC susceptibility testing, S. oralis; type: cell-based; settings: S. oralis 7862912.1; Viridans streptococci; Table 3
# Method: as §1
# [7] = test system: S. salivarius; assay: MIC susceptibility testing, S. salivarius; type: cell-based; settings: S. salivarius GRL05064; Viridans streptococci; Table 3
# Method: as §1
# [8] = test system: S. constellatus; assay: MIC susceptibility testing, S. constellatus; type: cell-based; settings: S. constellatus GRL05065; Viridans streptococci; Table 3
# Method: as §1
# [9] = test system: S. acidominimus; assay: MIC susceptibility testing, S. acidominimus; type: cell-based; settings: S. acidominimus 7862865; Viridans streptococci; Table 3
# Method: as §1
# [10] = test system: Clostridium difficile; assay: MIC, Clostridium difficile in Wilkins-Chalgren Anaerobe Agar; type: cell-based; settings: Table 4
# Method: as §1
# [11] = test system: E. coli; assay: MIC against intestinal flora organisms, E. coli; type: cell-based
# Method: as §1
# [12] = test system: Bifidobacterium adolescentis; assay: MIC against intestinal flora organisms, Bifidobacterium adolescentis; type: cell-based; settings: Bifidobacterium adolescentis NCTC 11814; Table 5
# [13] = test system: Bifidobacterium longum; assay: MIC against intestinal flora organisms, Bifidobacterium longum; type: cell-based; settings: Bifidobacterium longum NCTC 11818; Table 5
# [14] = test system: Bacteroides fragilis; assay: MIC against intestinal flora organisms, Bacteroides fragilis; type: cell-based; settings: Bacteroides fragilis NCTC 9343; Table 5
# [15] = test system: Bacteroides thetaiotaomicron; assay: MIC against intestinal flora organisms, Bacteroides thetaiotaomicron; type: cell-based; settings: Bacteroides thetaiotaomicron NCTC 10582; Table 5
# [16] = Stability in simulated gastric fluid (SGF); type: in vitro ADME; settings: 37° C., analytical HPLC
# Method: Nisin, mersacidin, compound I and compound III were tested for their susceptibility towards enzymatic digestion in the stomach. Nisin, mersacidin and compound III were tested for their susceptibility towards enzymatic digestion in the intestine. The SGF and SIF were based on the standard USP solutions for simulated gastric and simulated intestinal fluids and their activity confirmed against Bovine Serum Albumin (Hilger et al, Clin. Exp. Immunol. 2001, 123, 387-94). The compounds were incubated in SGF or SIF at 37° C. and their concentrations quantified by analytical HPLC (UV detection at 210 nm). The potential degradation of each compound was also monitored qualitatively by measuring in vitro antibacterial activity against Micrococcus luteus.
structure (smiles),measurement,setting,value
"CCC(C)[C@@H]1NC(=O)[C@H](C(C)C)NC(=O)[C@H]2NC(=O)CNC(=O)[C@@H]3CS[C@@H](C)[C@@H](NC(=O)[C@H]4CSC[C@H](N)C(=O)N[C@@H](CO)C(=O)NCC(=O)N[C@@H](Cc5c[nH]c6ccccc56)C(=O)N[C@@H](C(C)C)C(=O)N4)C(=O)N[C@@H](CC(C)C)C(=O)N[C@@H](C(=O)N[C@@H](C(C)CC)C(=O)N[C@@H](CCC(=O)O)C(=O)N3)[C@H](C)SC[C@H](NC1=O)C(=O)N[C@@H](C)C(=O)N[C@H](C(=O)NCCO)C[S+]([O-])[C@H]2C (stereo partly shown) [Compound III, Actagardine N-[2-ethanolamine]monocarboxamide]",MIC,"[1]; S. aureus 2, Vancomycin intermediate, Table 3",32 µg/mL
same,MIC,"[1]; S. aureus 26, Vancomycin intermediate, Table 3",32 µg/mL
same,MIC,"[1]; S. aureus 12232, Methicillin resistant, Table 3",8 µg/mL
same,MIC,"[1]; S. aureus G15, Methicillin sensitive, Table 3",>32 µg/mL
same,MIC,"[1]; S. aureus G20, Methicillin sensitive, Table 3",32 µg/mL
same,MIC,"[1]; S. aureus G22, Methicillin sensitive, Table 3",32 µg/mL
same,MIC,"[1]; S. aureus G23, Methicillin sensitive, Table 3",32 µg/mL
same,MIC,"[1]; S. aureus G28, Methicillin sensitive, Table 3",16 µg/mL
same,MIC,"[1]; S. aureus G30, Methicillin sensitive, Table 3",32 µg/mL
same,MIC,"[1]; S. aureus G31, Methicillin sensitive, Table 3",>32 µg/mL
same,MIC,"[1]; S. aureus G32, Methicillin sensitive, Table 3",32 µg/mL
same,MIC,"[1]; S. aureus G33, Methicillin sensitive, Table 3",32 µg/mL
same,MIC,"[1]; S. aureus G35, Methicillin sensitive, Table 3",>32 µg/mL
same,MIC,"[1]; S. aureus MI, Vancomycin intermediate, Table 3",32 µg/mL
same,MIC,"[1]; S. aureus Mu3, Vancomycin intermediate, Table 3",32 µg/mL
same,MIC,"[1]; S. aureus Mu50, Vancomycin intermediate, Table 3",32 µg/mL
same,MIC,"[1]; S. aureus NJ, Vancomycin intermediate, Table 3",>32 µg/mL
same,MIC,"[1]; S. aureus R33, Table 2",16 µg/mL
same,MIC,"[1]; S. aureus R34, Methicillin resistant, Table 3",8 µg/mL
same,MIC,"[1]; S. aureus R36, Methicillin resistant, Table 3",16 µg/mL
same,MIC,"[1]; S. aureus R39, Methicillin resistant, Table 3",>32 µg/mL
same,MIC,"[1]; S. aureus R40, Methicillin resistant, Table 3",32 µg/mL
same,MIC,"[1]; S. aureus SH1000, Methicillin sensitive, Table 3",16 µg/mL
same,MIC,"[1]; S. aureus SH1000, Table 2",8 µg/mL
same,MIC,"[1]; S. aureus V99, Vancomycin intermediate, Table 3",16 µg/mL
same,MIC,"[1]; S. aureus W71, Methicillin resistant, Table 3",32 µg/mL
same,MIC,"[1]; S. aureus W74, Methicillin resistant, Table 3",32 µg/mL
same,MIC,"[1]; S. aureus W96, Methicillin resistant, Table 3",>32 µg/mL
same,MIC,"[1]; S. aureus W97, Methicillin resistant, Table 3",>32 µg/mL
same,MIC,"[1]; S. aureus W98, Methicillin resistant, Table 3",32 µg/mL
same,MIC,"[1]; S. aureus W99, Methicillin resistant, Table 3",32 µg/mL
same,MIC,"[2]; S. epidermidis 7753921, Methicillin resistant, Table 3",>32 µg/mL
same,MIC,"[2]; S. epidermidis 7755298, Methicillin resistant, Table 3",>32 µg/mL
same,MIC,"[2]; S. epidermidis 7865688, Methicillin resistant, Table 3",>32 µg/mL
same,MIC,"[2]; S. epidermidis GRL05001, Methicillin sensitive, Table 3",>32 µg/mL
same,MIC,"[2]; S. epidermidis GRL05002, Methicillin sensitive, Table 3",>32 µg/mL
same,MIC,"[2]; S. epidermidis GRL05003, Methicillin sensitive, Table 3",32 µg/mL
same,MIC,"[2]; S. epidermidis GRL05004, Methicillin sensitive, Table 3",32 µg/mL
same,MIC,"[2]; S. epidermidis GRL05005, Methicillin sensitive, Table 3",>32 µg/mL
same,MIC,"[2]; S. epidermidis GRL05006, Methicillin sensitive, Table 3",>32 µg/mL
same,MIC,"[2]; S. epidermidis GRL05007, Methicillin sensitive, Table 3",>32 µg/mL
same,MIC,"[2]; S. epidermidis GRL05008, Methicillin sensitive, Table 3",>32 µg/mL
same,MIC,"[2]; S. epidermidis GRL05009, Methicillin sensitive, Table 3",>32 µg/mL
same,MIC,"[2]; S. epidermidis GRL05010, Methicillin sensitive, Table 3",>32 µg/mL
same,MIC,"[2]; S. epidermidis GRL05011, Methicillin resistant, Table 3",>32 µg/mL
same,MIC,"[2]; S. epidermidis GRL05013, Methicillin resistant, Table 3",>32 µg/mL
same,MIC,"[2]; S. epidermidis GRL05014, Methicillin resistant, Table 3",>32 µg/mL
same,MIC,"[2]; S. epidermidis GRL05015, Methicillin resistant, Table 3",>32 µg/mL
same,MIC,"[2]; S. epidermidis GRL05017, Methicillin resistant, Table 3",>32 µg/mL
same,MIC,"[2]; S. epidermidis GRL05019, Methicillin resistant, Table 3",>32 µg/mL
same,MIC,"[2]; S. epidermidis GRL05020, Methicillin resistant, Table 3",32 µg/mL
same,MIC,"[2]; S. epidermis 11047, Table 2",32 µg/mL
same,MIC,[3],1 µg/mL
same,MIC,[4],4 µg/mL
same,MIC,[5]; S. mitis 1 7722543,4 µg/mL
same,MIC,[5]; S. mitis 1 7863547,4 µg/mL
same,MIC,[5]; S. mitis GRL05062,8 µg/mL
same,MIC,[5]; S. mitis GRL05067,16 µg/mL
same,MIC,[6],8 µg/mL
same,MIC,[7],1 µg/mL
same,MIC,[8],>32 µg/mL
same,MIC,[9],4 µg/mL
same,MIC,[10]; C. difficile 027C,1 µg/mL
same,MIC,[10]; C. difficile 027SM,1 µg/mL
same,MIC,[10]; C. difficile 19126,2 µg/mL
same,MIC,[10]; C. difficile 37779,2 µg/mL
same,MIC,[10]; C. difficile B32,2 µg/mL
same,MIC,[10]; C. difficile E4,1 µg/mL
same,MIC,[10]; C. difficile E16,2 µg/mL
same,MIC,[10]; C. difficile E101,2 µg/mL
same,MIC,[10]; C. difficile P24,2 µg/mL
same,MIC,[10]; C. difficile P49,1 µg/mL
same,MIC,[10]; C. difficile P59,1 µg/mL
same,MIC,[10]; C. difficile P62,1 µg/mL
same,Minimal Inhibitory Concentration (MIC),"[11]; E. coli ATCC 25922, Table 5",>64 µg/mL
same,Minimal Inhibitory Concentration (MIC),"[11]; E. coli DC2 (membrane more susceptible), Table 5, first line",>64 µg/mL
same,Minimal Inhibitory Concentration (MIC),"[11]; E. coli DC2 (membrane more susceptible), Table 5, second line",>64 µg/mL
same,Minimal Inhibitory Concentration (MIC),[12],32 µg/mL
same,Minimal Inhibitory Concentration (MIC),[13],32 µg/mL
same,Minimal Inhibitory Concentration (MIC),[14],>64 µg/mL
same,Minimal Inhibitory Concentration (MIC),[15],>64 µg/mL
same,degradation in Simulated Gastric Fluid,[16],did not show appreciable degradation
